The test system of this experiment is LPS-induced tumor necrosis factor-α (TNF-α) production in mixed glial cells. Kind of experiment: In vitro CNS inflammation assay. In kind it is cell-based. The following applies: Rattus norvegicus, Glial cell, 6 h, LPS 50 ng/ml, TNF-α ELISA. The protocol: This protocol describes the procedure used to induce experimental inflammation by lipopolysacchride (LPS) in cultured CNS mixed glial cells. The anti-inflammatory effect of test compounds was evaluated against LPS-induced tumor necrosis factor-α (TNF-α) production in mixed glial cells.
The following steps were performed the day of the assay:
The mixed glial cells (7 days from initial culture) were replenished with mixed glial culture media consist of 50:50:10:1 combination of DMEM (high glucose: Invitrogen Corp), F-12 (Invitrogen Corp), 100% fetal bovine serum and 100×N-2 supplement (Invitrogen Corp). These mixed glial cells were prepared according to Park L C, Calingasan N Y, Uchida K, Zhang H, Gibson G E. (2000) “Metabolic impairment elicits brain cell type-selective changes in oxidative stress and cell death in culture.” J Neurochem 74(1):114-124 with some modification. Briefly, rat […] forebrains (1-2 day old) were isolated, triturated and plated on 96-well plates (20,000 cells per well) in mixed glial media in 5% CO2 incubator at 37° C. […]
The quantitative determination of TNF-αpresent in cell culture medium produced by mixed glial cells was performed using a solid phase sandwich enzyme linked immno-sorbent assay (ELISA) method based on the protocol and reagents provided by Biosource rat TNF-α ELISA kit (Biosource International).
(ELISA stands for enzyme-linked immunosorbent assay.)

Bounds are passed on as bounds.

Broadly, the IC50 is the point on the concentration scale where inhibition reaches its midpoint. For `OC1CCN(Cc2onc(-c3ccc(F)cc3)c2-c2ccnc(NC3CCCCC3)n2)CC1` [I-1], the IC50 is at most 1000 nM.

The record behind these values is patent US20040132755A1, “Isoxazoles and uses thereof” (priority 2002, published 2004).
